Columns and labels:
CDK9/cyclinT1 = biological target: T1, CDK9/cyclinT1 (Homo sapiens, UniProt P50750); experiment: CDK activity assay with p33 ATP, CDK9/cyclinT1; assay type: biochemical; conditions: 1 μM ATP
T1 construct: C-terminal 6His-tagged, full-length recombinant, human cdk9 (MW=44 kDa); 6His (C); made in house; host or cells: Sf21 insect cells (baculovirus)
Protocol: CDK9/cyclinT1 (Accession Number for CDK9; GenBank AF517840, for Cyclin T1; GenBank NM_001240)
C-terminal 6His-tagged, full-length recombinant, human cdk9 (MW=44 kDa) were co-expressed with untagged, full-length human cyclin T1 (MW=80.79 kDa) with baculovirus system in Sf21 insect cells. Recombinant protein complex was purified with Ni^2+/NTA agarose. Purity of recombinant protein was measured to be 50% by SDS-PAGE and Coomassie blue staining Specific Activity of purified enzyme was measured to be186 U/mg, where one unit of cdk9/cyclin T1 activity is defined as 1 nmol phosphate incorporated into 100 μM PDKtide ([…]) (SEQ ID NO. 3), per minute at 30° C. with a final ATP concentration of 100 μM. Enzyme was stored at a concentration of 0.1 mg/ml in 50 mM Tris-HCl, pH 7.5, 300 mM NaCl, 0.1 mM EGTA, 0.03% Brij-35, 270 mM sucrose, 1 mM benzamidine, 0.1% 2-mercaptoethanol, 0.2 mM PMSF.
PDKtide (Substrate for CDK9):
Synthetic peptide substrate with sequence of [[…]] (SEQ ID NO. 3), MW=4771.4.

CDK3/cyclinE = biological target: T2, CDK3/cyclinE (Homo sapiens, UniProt Q00526); experiment: CDK activity assay with p33 ATP, CDK3/cyclinE; assay type: biochemical; conditions: 1 μM ATP
T2 construct: C-terminal 6His-tagged recombinant human full-length cdk3 (MW=36 kDa); 6His (C); made in house; host or cells: Sf21 insect cells (baculovirus)
Protocol: CDK3/cyclinE (Accession Number for CDK3; GenBank X66357, for Cyclin E; GenBank NM_001238):
C-terminal 6His-tagged recombinant human full-length cdk3 (MW=36 kDa) were coexpressed with N-terminal GST-tagged recombinant human full-length cyclin E (MW=74 kDa) with baculovirus system in Sf21 insect cells. Recombinant protein complex was purified using Ni2+/NTA agarose and with purity to be 66% by SDS PAGE and Coomassie blue staining. Specific Activity of recombinant enzyme was measured to be 861 U/mg, where one unit of cdk3/cyclinE activity is defined as 1 nmol phosphate incorporated into 0.1 mg/ml histone H1 per minute at 30° C. with a final ATP concentration of […]. Enzyme was stored at a concentration of 0.1 mg/ml in 50 mM Tris/HCl pH7.5, 150 mM NaCl 0.1 mM EGTA, 0.03% Brij 35, 270 mM sucrose, 1 mM benzamidine, 0.2 mM PMSF, 0.1% 2-mercaptoethanol.

HDAC = HDAC fluorimetric assay kit (AK-500, Biomol), HeLa nuclear extract; assay type: biochemical
Protocol: HDAC inhibitors were screened using an HDAC fluorimetric assay kit (AK-500, Biomol, Plymouth Meeting, Pa.). […] Each assay was setup as follows: Defrosted all kit components and kept on ice until use. Diluted HeLa nuclear extract 1:29 in Assay Buffer (50 mM Tris/Cl, pH 8.0, 137 mM NaCl, 2.7 mM KCl, 1 mM MgCl2). Prepared dilutions of Trichostatin A (TSA, positive control) and tested compounds in assay buffer (5× of final concentration). Diluted Fluor de LysTM Substrate in assay buffer to 100 uM (50 fold=2× final). Diluted Fluor de LysTM developer concentrate 20-fold (e.g. 50 μl plus 950 μl Assay Buffer) in cold assay buffer. Second, diluted the 0.2 mM Trichostatin A 100-fold in the 1× Developer (e.g. 10 μl in 1 ml; final Trichostatin A concentration in the 1× Developer=2 μM; final concentration after addition to HDAC/Substrate reaction=1 μM). Added Assay buffer, diluted trichostatin A or test inhibitor to appropriate wells of the microtiter plate. Added diluted HeLa extract or other HDAC sample to all wells except for negative controls. Allowed diluted Fluor de LysTM Substrate and the samples in the microtiter plate to equilibrate to assay temperature (e.g. 25 or 37° C. Initiated HDAC reactions by adding diluted substrate (25 μl) to each well and mixing thoroughly. Allowed HDAC reactions to proceed for 1 hour and then stopped them by addition of Fluor de LysTM Developer (50 μl). Incubated plate at room temperature (25° C.) for 10-15 min. Read samples in a microtiter-plate reading fluorimeter capable of excitation at a wavelength in the range 350-380 nm and detection of emitted light in the range 440-460 nm.

CDK4/cyclinD1 = biological target: T3, CDK4/cyclinD1 (Homo sapiens, UniProt P11802); experiment: CDK activity assay with p33 ATP, CDK4/cyclinD1; assay type: biochemical; conditions: 1 μM ATP
T3 construct: Recombinant Human Full-length GST-tagged CDK-4 (MW=61.8 kDa) and cyclinD1 (MW=61.2 kDa); GST; made in house; host or cells: insect cells
T3 sequence (P11802 whole entry): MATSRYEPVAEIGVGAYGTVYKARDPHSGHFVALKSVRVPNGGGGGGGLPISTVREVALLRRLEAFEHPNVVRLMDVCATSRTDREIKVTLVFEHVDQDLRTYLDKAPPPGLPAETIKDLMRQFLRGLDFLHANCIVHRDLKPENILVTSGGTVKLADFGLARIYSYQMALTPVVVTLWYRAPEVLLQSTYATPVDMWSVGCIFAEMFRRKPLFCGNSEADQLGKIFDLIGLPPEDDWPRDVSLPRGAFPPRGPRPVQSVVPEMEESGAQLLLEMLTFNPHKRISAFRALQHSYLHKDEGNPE
T3 sequence (P24385 whole entry partner): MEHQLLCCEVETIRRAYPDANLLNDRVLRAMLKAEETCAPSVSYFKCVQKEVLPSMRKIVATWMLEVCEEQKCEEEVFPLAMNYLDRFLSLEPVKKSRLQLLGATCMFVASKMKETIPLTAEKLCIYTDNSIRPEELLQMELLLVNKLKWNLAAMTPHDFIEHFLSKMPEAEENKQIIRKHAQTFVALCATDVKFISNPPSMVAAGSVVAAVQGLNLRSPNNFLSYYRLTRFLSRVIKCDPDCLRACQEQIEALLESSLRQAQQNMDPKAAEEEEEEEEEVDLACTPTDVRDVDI
Protocol: Recombinant Human Full-length GST-tagged CDK-4 (MW=61.8 kDa) and cyclinD1 (MW=61.2 kDa) were expressed in insect cells. […] Activity was determined at a final protein concentration at 8.33 μg/mL.
RBC-CTF (Substrate for CDK4):
Human RB protein (S773-K928, MW=44.46 kDa), N-terminal GST-tagged was purified and followed with a factor Xa cleavage, which was performed in 4 mM concentration of glutathione, Purified protein was stocked at a concentration of 0.67 mg/ml.
2 nM CDK4/cyclinD1 and 1 μM RB-CTF were mixed in the reaction buffer with final concentration of 1 μM ATP and 1% DMSO.

CDK2/cyclinE = biological target: T4, CDK2/cyclinE (Homo sapiens, UniProt P24941); experiment: CDK activity assay with p33 ATP, CDK2/cyclinE; assay type: biochemical; conditions: 1 μM ATP
T4 construct: C-terminal 6His-tagged, recombinant full-length CDK2 (MW=34 kDa); 6His (C); made in house; host or cells: Sf21 cells (baculovirus)
Protocol: CDK2/cyclinE (Accession Number for CDK2; EMBL M68520, for cyclinE1; GenBank NM_001238):
C-terminal 6His-tagged, recombinant full-length CDK2 (MW=34 kDa) in complex with N-terminal GST-tagged, recombinant full-length cyclinE1 (MW=74 kDa) were expressed with baculovirus system in Sf21 cells. Recombinant proteins were purified using Ni2+/NTA agarose and the purity of recombinant protein complex was measured to be around 76% by SDS-PAGE and Coomassie blue staining. Specific Activity of recombinant CDK2/cyclinE was 1336 U/mg, where one unit of CDK2/cylinE1 activity is defined as 1 nmol phosphate incorporated into 0.1 mg/ml histone H1 per minute at 30° C. with a final ATP concentration of 100 μM. Enzyme was stored with concentration of 0.1 mg/ml in 50 mM Tris/HCl pH 7.5, 150 mM NaCl, 0.03% Brij-35, 0.1 mM EGTA, 0.2 mM PMSF, 1 mM benzamidine, 0.1% 2-mercaptoethanol, 270 mM sucrose.

CDK7/cyclinH1/MNAT1 = CDK7/cyclinH1/MNAT1 (Homo sapiens, UniProt P50613); experiment: CDK activity assay with p33 ATP, CDK7/cyclinH1/MNAT1
CDK7/cyclinH1/MNAT1, sequence (P50613 whole entry): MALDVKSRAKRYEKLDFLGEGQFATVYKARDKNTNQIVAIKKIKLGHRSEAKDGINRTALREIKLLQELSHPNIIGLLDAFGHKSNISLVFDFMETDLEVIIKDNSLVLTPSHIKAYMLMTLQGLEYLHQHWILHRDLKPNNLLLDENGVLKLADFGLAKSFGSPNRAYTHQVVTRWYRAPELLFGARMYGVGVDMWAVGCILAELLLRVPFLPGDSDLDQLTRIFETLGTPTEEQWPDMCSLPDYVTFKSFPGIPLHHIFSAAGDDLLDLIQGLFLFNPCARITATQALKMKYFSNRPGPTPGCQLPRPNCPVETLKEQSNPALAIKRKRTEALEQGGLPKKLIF
CDK7/cyclinH1/MNAT1, sequence (P51946 whole entry partner): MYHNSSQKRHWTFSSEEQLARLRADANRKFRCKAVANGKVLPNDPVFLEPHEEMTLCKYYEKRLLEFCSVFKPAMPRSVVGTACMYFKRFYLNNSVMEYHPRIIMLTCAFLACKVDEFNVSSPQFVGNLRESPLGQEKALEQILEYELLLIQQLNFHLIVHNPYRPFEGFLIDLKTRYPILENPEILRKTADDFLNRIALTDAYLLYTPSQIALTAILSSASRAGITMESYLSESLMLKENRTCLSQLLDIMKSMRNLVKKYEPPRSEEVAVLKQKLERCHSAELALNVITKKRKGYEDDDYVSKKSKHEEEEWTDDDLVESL
CDK7/cyclinH1/MNAT1, sequence (P51948 whole entry partner): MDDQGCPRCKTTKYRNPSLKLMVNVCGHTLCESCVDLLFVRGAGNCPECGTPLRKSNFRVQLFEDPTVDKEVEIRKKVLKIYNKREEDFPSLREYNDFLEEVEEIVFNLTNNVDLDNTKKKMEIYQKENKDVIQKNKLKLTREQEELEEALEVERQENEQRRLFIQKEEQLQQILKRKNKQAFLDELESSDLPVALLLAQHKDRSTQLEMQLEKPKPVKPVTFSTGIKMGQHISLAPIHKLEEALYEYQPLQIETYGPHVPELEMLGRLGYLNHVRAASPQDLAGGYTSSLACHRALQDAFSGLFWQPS

T1 sequence (P50750 whole entry): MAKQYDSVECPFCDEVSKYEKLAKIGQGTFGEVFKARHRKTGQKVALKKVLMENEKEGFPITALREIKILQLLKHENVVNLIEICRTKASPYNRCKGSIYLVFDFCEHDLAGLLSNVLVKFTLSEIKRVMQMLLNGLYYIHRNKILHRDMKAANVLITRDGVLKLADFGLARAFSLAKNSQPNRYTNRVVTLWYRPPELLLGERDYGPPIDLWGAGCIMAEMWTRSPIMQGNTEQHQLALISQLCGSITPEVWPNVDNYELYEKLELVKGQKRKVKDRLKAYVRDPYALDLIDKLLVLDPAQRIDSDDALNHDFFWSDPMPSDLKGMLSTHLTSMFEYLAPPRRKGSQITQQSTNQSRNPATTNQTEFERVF
T1 sequence (O60563 whole entry partner): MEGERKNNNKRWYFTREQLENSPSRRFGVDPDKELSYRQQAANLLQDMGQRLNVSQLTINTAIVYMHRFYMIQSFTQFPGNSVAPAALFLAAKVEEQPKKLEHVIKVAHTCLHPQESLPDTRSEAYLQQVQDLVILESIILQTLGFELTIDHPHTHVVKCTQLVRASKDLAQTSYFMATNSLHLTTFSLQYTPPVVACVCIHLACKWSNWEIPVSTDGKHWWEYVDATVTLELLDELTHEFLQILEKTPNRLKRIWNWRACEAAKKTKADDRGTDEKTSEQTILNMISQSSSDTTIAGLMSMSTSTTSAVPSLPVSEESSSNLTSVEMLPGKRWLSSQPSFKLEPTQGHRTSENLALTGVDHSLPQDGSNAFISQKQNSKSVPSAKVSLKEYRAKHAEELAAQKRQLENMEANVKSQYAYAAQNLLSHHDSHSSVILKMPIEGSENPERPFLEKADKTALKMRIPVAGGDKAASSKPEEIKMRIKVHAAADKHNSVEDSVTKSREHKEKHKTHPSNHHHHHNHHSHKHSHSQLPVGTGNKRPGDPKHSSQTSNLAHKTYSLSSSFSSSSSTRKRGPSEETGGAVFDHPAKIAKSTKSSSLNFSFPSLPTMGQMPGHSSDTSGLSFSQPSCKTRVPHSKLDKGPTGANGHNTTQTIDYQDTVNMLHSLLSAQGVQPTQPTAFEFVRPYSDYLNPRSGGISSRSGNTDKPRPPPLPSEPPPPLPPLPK

| IC50 (CDK9/cyclinT1) [nM] | IC50 (CDK3/cyclinE) [nM] | IC50 (HDAC) [nM] | IC50 (CDK4/cyclinD1) [nM] | IC50 (CDK2/cyclinE) [nM] | IC50 (CDK7/cyclinH1/MNAT1) [nM] | Structure (SMILES) |
| --- | --- | --- | --- | --- | --- | --- |
| < 100 | < 100 | < 100 | 100 to 1000 | < 100 | 1000 to 10000 | CC(C)(C)c1cnc(CSc2cnc(NC(=O)C3CCN(c4ncc(C(=O)NO)cn4)CC3)s2)o1 [Compound 20, 2-(4-(5-((5-tert-butyloxazol-2-yl)methylthio)thiazol-2-ylcarbamoyl)piperidin-1-yl)-N-hydroxypyrimidine-5-carboxamide] |
| < 100 | < 100 | < 100 | 100 to 1000 | < 100 | 100 to 1000 | CC(C)(C)c1cnc(CSc2cnc(NC(=O)CCCCCCC(=O)NO)s2)o1 [Compound 8, N^1-(5-((5-tert-butyloxazol-2-yl)methylthio)thiazol-2-yl)-N^8-hydroxyoctanediamide] |
| < 100 | < 100 | 100 to 1000 | < 100 | < 100 | 100 to 1000 | CC(C)(C)c1cnc(CSc2cnc(NC(=O)Cc3ccc(OCCCC(=O)NO)cc3)s2)o1 [Compound 9, 4-(4-(2-(5-((5-tert-butyloxazol-2-yl)methylthio)thiazol-2-ylamino)-2-oxoethyl)phenoxy)-N-hydroxybutanamide] |
